Measurements: article PMC10182977 (Nature Communications, 2023)

B1: Xenopus laevis cholinephosphotransferase-1 (enzyme, UniProt Q4KLV1 1-402, looked up)
chain: MGLAEGLAARMAPHLYIQEPLSAQQLKKLEEHKYSASGRSLVEPPMQVYWNWLVEKVPLWLAPNTITMVGLLLNVLSTLILVCYCPTATEGAPFWTYLLCAIGLFVYQSLDAIDGKQARRTNSSSPLGEMFDHGCDSISIVFVNLGTIAAVRLGTLPGWMFYCCFVGMFMFYCAQWQTYVCGTLKFGIIDVTELQISVTVMFLMTAVCGPELWDYEIPFTGLPMKTIPLLGIIGGTVYSCSNYFRVILSGGVGKNGSTVAGTSVLSPGLHIGLVLLLALMIYKKSTTNLFLQNPCLYTLAFGFVSAKITIKLVIAHMTKSEISLQDTAFIGPGLLFFNQYFNSFIDEYIVLWIAMVISFADLLRYCISVCLQIATHLRISVFRISSNQAAEQVQTQKQKLTD
notes: cholinephosphotransferase-1 (CHPT1) of Xenopus laevis, full length, codon-optimized gene; residues 20-383 are resolved in the cryo-EM models, the first 19 and the last 18 residues are not resolved; The His6 tag was cleaved with TEV protease; residues of the cleavage site may be left at the C-terminus; also called xlCHPT1; CHPT1; source: Hi Five (Trichoplusia ni) cells, baculovirus, purified (LMNG …)

Key:
[1] = target: T1, xlCHPT1 (Xenopus laevis, UniProt Q4KLV1); assay: cryo-EM structure, ~[…] Å; assay type: binding; conditions: Mg2+ complex; 10 mM CDP and 0.5 mM DAG added; CDP-choline active site
T1 construct: gene chpt1; full-length, codon-optimized; C-terminal His6-tag cleaved with TEV protease; Hi Five (Trichoplusia ni) baculovirus; detergent-purified homodimer; residues 20-383 modelled
T1 sequence (Q4KLV1 1-402): B1 chain

[2] = target: the molecule itself; assay: cryo-EM structure; single-particle cryo-EM of purified xlCHPT1 in 20 mM HEPES, 150 mM NaCl, 2 mM BME, 4 mM MgCl2, 0.02% GDN; with 10 mM CDP-choline, or with 10 mM CDP and 0.5 mM DAG; refined with C2 symmetry

Molecule | cryo-EM structure, ~3.2 Å [1] | stoichiometry N [2]
Nc1ccn([C@@H]2O[C@H](COP(=O)(O)OP(=O)(O)O)[C@@H](O)[C@H]2O)c(=O)n1 [CDP] | xlCHPT1 in complex with CDP have been deposited in the PDB under the accession code 8ERO | 
B1 |  | 2
